ChEMBL document CHEMBL1150740, “Studies on inhibitors of skin-tumor promotion, I. Inhibitory effects of triterpenes from Euptelea polyandra on Epstein-Barr virus activation” (J Nat Prod, 1987)

What was measured:
Format in all cases: cell-based
Raji [1] = experiment: Inhibition of TPA-induced EBV-early antigen activation in human Raji cells assessed as early antigen activation at 5000 mol ratio after 48 hrs relative to TPA; parameters: scale not given: the % may be the effect or the level left; conditions: human gammaherpesvirus 4
Raji [2] = experiment: Inhibition of TPA-induced EBV-early antigen activation in human Raji cells assessed as early antigen activation at 1000 mol ratio after 48 hrs relative to TPA; parameters: scale not given: the % may be the effect or the level left; conditions: human gammaherpesvirus 4
Raji [3] = experiment: Inhibition of TPA-induced EBV-early antigen activation in human Raji cells assessed as early antigen activation at 100 mol ratio after 48 hrs relative to TPA; conditions: human gammaherpesvirus 4
Raji [4] = experiment: Inhibition of TPA-induced EBV-early antigen activation in human Raji cells assessed as early antigen activation at 10 mol ratio after 48 hrs relative to TPA; conditions: human gammaherpesvirus 4
Raji [5] = experiment: Inhibition of EBV-early antigen activation in human Raji cells assessed as early antigen activation at 1 uM ratio after 48 hrs; parameters: scale not given: the % may be the effect or the level left
[6] = Cytotoxicity against human Raji cells assessed as cell viability at 5000 mol ratio after 48 hrs relative to TPA; conditions: read-out: Activity
[7] = Cytotoxicity against human Raji cells assessed as cell viability at 1000 mol ratio after 48 hrs relative to TPA; conditions: read-out: Activity
[8] = Cytotoxicity against human Raji cells assessed as cell viability at 100 mol ratio after 48 hrs relative to TPA; conditions: read-out: Activity
[9] = Cytotoxicity against human Raji cells assessed as cell viability at 10 mol ratio after 48 hrs relative to TPA; conditions: read-out: Activity

| SMILES | Activity (Raji [1]) | Activity (Raji [2]) | EBV early antigen activation relative to TPA (Raji [3]) | EBV-EA activation relative to TPA (Raji [4]) | Activity (Raji [5]) | viability at 48 h, 5000 mol ratio relative to TPA [6] | viability at 48 h, 1000 mol ratio relative to TPA [7] | viability at 48 h, 100 mol ratio relative to TPA [8] | viability at 48 h, 10 mol ratio relative to TPA [9] |
| --- | --- | --- | --- | --- | --- | --- | --- | --- | --- |
| COC(=O)[C@]12CCC(C)(C)C[C@H]1C1=CC[C@@H]3[C@@]4(C)CC[C@H](O)C(C)(C)[C@@H]4CC[C@@]3(C)[C@]1(C)CC2 [METHYL OLEANOLATE] | 0% | 29.5% | 46.3% | 100% | 0% | 0% | 50% | 80% | 100% |
| CC(=O)O[C@@H]1C[C@]2(C)[C@H]3CC=C4[C@@H]5CC(C)(C)CC[C@]5(C(=O)O)CC[C@@]4(C)[C@]3(C)CC[C@H]2C(C)(C)[C@H]1OC(C)=O | 0% | 0% | 59.6% | 100% | 0% | 0% | 20% | 70% | 100% |
| CC1(C)CC[C@]2(C(=O)O)CC[C@]3(C)C(=CC[C@@H]4[C@@]5(C)CC[C@H](O)C(C)(C)[C@@H]5CC[C@]43C)[C@@H]2C1 [OLEANOLIC_ACID] | 0% | 30% | 80% | 100% | 2.3% | 20% | 60% | > 80% | 100% |
| C=C(C)[C@@H]1CC[C@]2(C(=O)O)CC[C@]3(C)[C@H](CC[C@@H]4[C@@]5(C)CC[C@H](O)C(C)(C)[C@@H]5CC[C@]43C)[C@@H]12 [BETULINIC ACID] | 0% | 80% | 100% | – | 0% | 20% | > 80% | 100% | 100% |
| C=C(C)[C@@H]1CC[C@]2(C(=O)O)CC[C@]3(C)[C@H](CC[C@@H]4[C@@]5(C)CC[C@H](OC(C)=O)C(C)(C)[C@@H]5CC[C@]43C)[C@@H]12 | 0% | 0% | 55.1% | 100% | 0% | 80% | 80% | 80% | 100% |
| C=C(C)[C@@H]1CC[C@]2(C(=O)OC)CC[C@]3(C)[C@H](CC[C@@H]4[C@@]5(C)CC[C@H](O)C(C)(C)[C@@H]5CC[C@]43C)[C@@H]12 [METHYL BETULINATE] | 0% | 71.5% | 100% | 100% | 0% | 80% | > 80% | 100% | 100% |
| CC1(C)CC[C@]2(CO)CC[C@]3(C)C(=CC[C@@H]4[C@@]5(C)CC[C@H](O)C(C)(C)[C@@H]5CC[C@]43C)[C@@H]2C1 [ERYTHRODIOL] | 0% | 19.3% | 71.7% | 100% | 0% | 10% | 50% | > 80% | 100% |
| C=C(C)[C@@H]1CC[C@]2(C)CC[C@]3(C)[C@H](CC[C@@H]4[C@@]5(C)CC[C@H](OC(C)=O)C(C)(C)[C@@H]5CC[C@]43C)[C@@H]12 [LUPENYL ACETATE] | 0% | 81.8% | 100% | 100% | 0% | 60% | 80% | 100% | 100% |
| C=C(C)[C@@H]1CC[C@]2(CO)CC[C@]3(C)[C@H](CC[C@@H]4[C@@]5(C)CC[C@H](O)C(C)(C)[C@@H]5CC[C@]43C)[C@@H]12 [BETULIN] | 0% | 100% | 100% | 100% | 1.6% | 80% | 100% | 100% | 100% |
| CC(=O)OC[C@]12CCC(C)(C)C[C@H]1C1=CC[C@@H]3[C@@]4(C)CC[C@H](OC(C)=O)C(C)(C)[C@@H]4CC[C@@]3(C)[C@]1(C)CC2 | 0% | 100% | 100% | 100% | 0% | 50% | 100% | 100% | 100% |
| COC(=O)[C@]12CCC(C)(C)C[C@H]1C1=CC[C@@H]3[C@@]4(C)C[C@@H](O)[C@H](O)C(C)(C)[C@@H]4CC[C@@]3(C)[C@]1(C)CC2 [MASLINIC ACID METHYL ESTER] | 0% | 65.6% | 100% | 100% | 0% | 0% | 80% | 100% | 100% |
| CC(=O)O[C@H]1CC[C@]2(C)[C@H]3CC=C4[C@@H]5CC(C)(C)CC[C@]5(C(=O)O)CC[C@@]4(C)[C@]3(C)CC[C@H]2C1(C)C [ACETYL OLEANOLIC ACID] | 0% | 36.4% | 100% | 100% | 1.6% | 50% | 80% | 100% | 100% |
| CC1(C)CC[C@]2(C)CC[C@]3(C)C(=CC[C@@H]4[C@@]5(C)C(=O)CC(=O)C(C)(C)[C@@H]5CC[C@]43C)[C@@H]2C1 | 0% | 0% | 100% | 100% | 0% | 0% | 20% | 100% | 100% |
| CC(=O)O[C@H]1CC[C@]2(C)[C@H]3CC=C4[C@@H]5CC(C)(C)CC[C@]5(C=O)CC[C@@]4(C)[C@]3(C)CC[C@H]2C1(C)C | 0% | 100% | 100% | 100% | 0% | 40% | 100% | 100% | 100% |
| CC1(C)CC[C@]2(C(=O)O)CC[C@]3(C)C(=CC[C@@H]4[C@@]5(C)C[C@@H](O)[C@H](O)C(C)(C)[C@@H]5CC[C@]43C)[C@@H]2C1 [MASLINIC ACID] | 0% | 0% | 65.6% | 100% | 0% | 0% | 0% | 70% | 100% |
| CC(=O)O[C@H]1CC[C@]2(C)[C@H]3CC=C4[C@@H]5CC(C)(C)CC[C@]5(CO)CC[C@@]4(C)[C@]3(C)CC[C@H]2C1(C)C | 0% | 32.3% | 59.4% | 100% | 0% | 40% | 70% | > 80% | 100% |
